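Assay format: 96-well plates, 48-hour exposure. GI50 marks 50% less growth.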 Active and inactive are the calls of the source. Cut-off read from the data, not from the text of the source: active = GI50 up to about 1.1 µM and inactive = higher.
Key:
Assay in all cases: NCI anticancer screen, dose series, 48 h
RPMI-8226 = test system: RPMI-8226
OVCAR-3 = test system: OVCAR-3
HOP-62 = test system: HOP-62
NCI-H522 = test system: NCI-H522
UO-31 = test system: UO-31
SNB-19 = test system: SNB-19
SK-MEL-28 = test system: SK-MEL-28
EKVX = test system: EKVX
M14 = test system: M14
NCI-H460 = test system: NCI-H460
A549 = test system: A549
SK-OV-3 = test system: SK-OV-3
SNB-75 = test system: SNB-75
786-0 = test system: 786-0
RXF 393 = test system: RXF 393
MCF7 = test system: MCF7
MDA-MB-435 = test system: MDA-MB-435
Hs-578T = test system: Hs-578T
MDA-N = test system: MDA-N
T47D = test system: T47D

Structure (SMILES)	GI50 (RPMI-8226)	GI50 (OVCAR-3)	GI50 (HOP-62)	GI50 (NCI-H522)	GI50 (UO-31)	GI50 (SNB-19)	GI50 (SK-MEL-28)	GI50 (EKVX)	GI50 (M14)	GI50 (NCI-H460)	GI50 (A549)	GI50 (SK-OV-3)	GI50 (SNB-75)	GI50 (786-0)	GI50 (RXF 393)	GI50 (MCF7)	GI50 (MDA-MB-435)	GI50 (Hs-578T)	GI50 (MDA-N)	GI50 (T47D)
CC(=O)Nc1ccccc1Sc1ccccc1	> 100 µM (inactive)	2.6 µM (inactive)	> 100 µM (inactive)	36.6 µM (inactive)	28.6 µM (inactive)	> 100 µM (inactive)	> 100 µM (inactive)	> 100 µM (inactive)	> 100 µM (inactive)	> 100 µM (inactive)	> 100 µM (inactive)	> 100 µM (inactive)	39.3 µM (inactive)	> 100 µM (inactive)	74.5 µM (inactive)					
CC(=N/NC(N)=S)/C(C)=N/NC(N)=S	> 100 µM (inactive)	> 100 µM (inactive)	> 100 µM (inactive)	> 100 µM (inactive)	> 100 µM (inactive)	> 100 µM (inactive)	> 100 µM (inactive)	> 100 µM (inactive)	> 100 µM (inactive)	> 100 µM (inactive)	> 100 µM (inactive)		> 100 µM (inactive)	> 100 µM (inactive)	> 100 µM (inactive)	> 100 µM (inactive)	> 100 µM (inactive)	> 100 µM (inactive)	> 100 µM (inactive)	
Nc1ccccc1OCc1cc(=O)c(OCc2ccccc2)co1	15 µM (inactive)	22.9 µM (inactive)	33 µM (inactive)			> 100 µM (inactive)	> 100 µM (inactive)	24.1 µM (inactive)	17.7 µM (inactive)	7.62 µM (inactive)	71.1 µM (inactive)	23.6 µM (inactive)		23.8 µM (inactive)		14.7 µM (inactive)	15.8 µM (inactive)		19.1 µM (inactive)	24.2 µM (inactive)
CNc1ncccc1Nc1cc(=O)n2c3cccnc3n(C)c2c1	> 100 µM (inactive)	> 100 µM (inactive)	36.8 µM (inactive)	61 µM (inactive)	> 100 µM (inactive)	40.9 µM (inactive)	> 100 µM (inactive)	> 100 µM (inactive)	> 100 µM (inactive)	> 100 µM (inactive)	> 100 µM (inactive)	> 100 µM (inactive)	24.9 µM (inactive)	> 100 µM (inactive)	20.6 µM (inactive)	> 100 µM (inactive)	> 100 µM (inactive)		> 100 µM (inactive)	> 100 µM (inactive)
O=c1nc2ccc3sc4ccccc4c(=O)c3n2c(=O)[nH]1	> 100 µM (inactive)	> 100 µM (inactive)	> 100 µM (inactive)	73.8 µM (inactive)	> 100 µM (inactive)	> 100 µM (inactive)	> 100 µM (inactive)	11.7 µM (inactive)		> 100 µM (inactive)	> 100 µM (inactive)		> 100 µM (inactive)	> 100 µM (inactive)	> 100 µM (inactive)	> 100 µM (inactive)	> 100 µM (inactive)	19.4 µM (inactive)	> 100 µM (inactive)	
CNc1nc(=O)c(C#N)c(-c2ccc(C)cc2)s1		> 100 µM (inactive)		59.3 µM (inactive)	> 100 µM (inactive)	> 100 µM (inactive)	> 100 µM (inactive)	67.6 µM (inactive)	> 100 µM (inactive)	> 100 µM (inactive)	> 100 µM (inactive)	> 100 µM (inactive)	> 100 µM (inactive)	> 100 µM (inactive)	> 100 µM (inactive)	> 100 µM (inactive)	> 100 µM (inactive)		> 100 µM (inactive)	> 100 µM (inactive)
CN1CCN(c2n[nH]c(=O)c3c2nnn3Cc2ccccc2)CC1	> 100 µM (inactive)	> 100 µM (inactive)	> 100 µM (inactive)		71.6 µM (inactive)	> 100 µM (inactive)	> 100 µM (inactive)	> 100 µM (inactive)	> 100 µM (inactive)	> 100 µM (inactive)	> 100 µM (inactive)		> 100 µM (inactive)	> 100 µM (inactive)	86.7 µM (inactive)	> 100 µM (inactive)	> 100 µM (inactive)		0.482 µM (active)	
O=C(/C=C/c1ccc(Cl)c(Cl)c1)CCN1CCN(CCC(=O)/C=C/c2ccc(Cl)c(Cl)c2)CC1	3.21 µM (inactive)	23.6 µM (inactive)	21.9 µM (inactive)	8.13 µM (inactive)	16.8 µM (inactive)		20.4 µM (inactive)	30.4 µM (inactive)	17.8 µM (inactive)	17.2 µM (inactive)	30.2 µM (inactive)	45.6 µM (inactive)	31.9 µM (inactive)	6.9 µM (inactive)	20.2 µM (inactive)	4.04 µM (inactive)	21.8 µM (inactive)			24.8 µM (inactive)
COC(=O)c1cccc2cccc(C(=O)Nc3ccc(C)cc3C)c12	22.5 µM (inactive)	72.8 µM (inactive)	> 100 µM (inactive)	70.1 µM (inactive)	> 100 µM (inactive)	> 100 µM (inactive)	> 100 µM (inactive)	> 100 µM (inactive)	> 100 µM (inactive)	> 100 µM (inactive)	> 100 µM (inactive)	> 100 µM (inactive)	> 100 µM (inactive)	> 100 µM (inactive)	39.3 µM (inactive)					
O=CC12CCCN1CCC2		> 100 µM (inactive)	> 100 µM (inactive)	> 100 µM (inactive)	> 100 µM (inactive)	> 100 µM (inactive)	> 100 µM (inactive)	> 100 µM (inactive)	> 100 µM (inactive)	> 100 µM (inactive)	> 100 µM (inactive)	> 100 µM (inactive)		> 100 µM (inactive)	> 100 µM (inactive)		> 100 µM (inactive)		> 100 µM (inactive)	> 100 µM (inactive)
COc1cc(/C=c2/c3ccccc3n3c2cc(-c2ccccc2)[n+]3C)cc(OC)c1OC	2.55 µM (inactive)	2.43 µM (inactive)	5.47 µM (inactive)	2.93 µM (inactive)	5.12 µM (inactive)	5.48 µM (inactive)	5.78 µM (inactive)	5.15 µM (inactive)	4.95 µM (inactive)	4.58 µM (inactive)	4.18 µM (inactive)	5.92 µM (inactive)	4.01 µM (inactive)	4.06 µM (inactive)	2.74 µM (inactive)	4.54 µM (inactive)	2.51 µM (inactive)		4.04 µM (inactive)	4.06 µM (inactive)
C1CN1c1nc(N2CC2)nc(N2CC2)n1	12.5 µM (inactive)	16 µM (inactive)	1.97 µM (inactive)	5.21 µM (inactive)	7.36 µM (inactive)	6.65 µM (inactive)	14.3 µM (inactive)	19.5 µM (inactive)	4.84 µM (inactive)	0.41 µM (active)	4.29 µM (inactive)	8.87 µM (inactive)	5.66 µM (inactive)	2.97 µM (inactive)	6.78 µM (inactive)	2.16 µM (inactive)	12.6 µM (inactive)	26.5 µM (inactive)	12.1 µM (inactive)	

From ChEMBL document CHEMBL1201862, “PubChem BioAssay data set” (2004)
